In US8729269B2, “Substituted piperidino phenyloxazolidinones having antimicrobial activity with improved in vivo efficacy” (Wockhardt Limited, priority 2003, dated 2014) one finds MIC and ED50 data, which are given here for nine compounds.

As usually defined, the MIC is the lowest concentration that inhibits growth of the organism. High values mean a less susceptible organism, low ones a more susceptible organism. One may read the ED50 as the midpoint of the dose-response relation. Higher therefore signals a need for a large dose.

Molecules are shown by their SMILES. Values after ≈ are worked out from the molar mass of the structure shown.

The test system of experiment [1] is Methicilin resistant Staphylococcus aureus 32 (MRSA 32). Kind of experiment: Minimum Inhibitory Concentration (MIC) determination, agar dilution. In kind it is cell-based. The note with it: Mueller Hinton agar, 24 hrs at 35° C. As for the experimental part: (§1) Overnight grown cultures of Methicilin resistant Staphylococcus aureus 32 (MRSA 32), Methicilin resistant Staphylococcus epidermidis 118 (MRSE 118), Vancomycin resistant enterococci 303 (VRE 303) in Tryptic Soya broth were diluted in Mueller Hinton Broth to give optical density matching with MacFarland tube 0.5 standard. Cultures were further diluted 1:10 in Mueller Hinton broth. Using Denley's multipoint inoculator, 10^4 cells were deposited on Mueller Hinton agar (Difco) containing range of 2 fold dilutions of test compounds. These plates were incubated for 24 hrs at 35° C. and MIC results recorded. MIC is defined as minimum drug concentration that inhibits test organisms. For determining MIC of test compounds against Streptococcus pneumoniae 49619 (SPN 49619) and Streptococcus pyogenes 801 (SPY 801), Mueller Hinton agar containing 5% sheep blood was employed.

Experiment [2] relates to Methicilin resistant Staphylococcus epidermidis 118 (MRSE 118). The experiment is described as above. The experiment is classed as cell-based. The note with it: Mueller Hinton agar, 24 hrs at 35° C. How it is done: as §1
In experiment [3] the test system is Vancomycin resistant enterococci 303 (VRE 303). Described as above. In kind it is cell-based. The note with it: Enterococcus, Mueller Hinton agar, 24 hrs at 35° C. How it is done: as §1
Experiment [4] deals with Streptococcus pneumoniae 49619 (SPN 49619). The experiment can be described thus: Minimum Inhibitory Concentration (MIC) determination, agar with 5% sheep blood. The experiment is classed as cell-based. The note with it: Mueller Hinton agar containing 5% sheep blood. As for the experimental part:
as §1

Experiment [5] relates to Streptococcus pyogenes 801 (SPY 801). The experiment is described as above. In kind it is cell-based. The note with it: Mueller Hinton agar containing 5% sheep blood. How it is done:
as §1

Experiment [6] has as its system methicillin resistant Staphylococcus aureus strain MRSA 32. Kind of experiment: Murine Assay Procedure (in vivo efficacy, MRSA 32 infection). The note with it: swiss mice infected intraperitoneally with MRSA 32, oral gavage 1 h after infection, repeat dose 3 hrs later, percentage survival on Day 7. How it is done: Oxazolidinone new chemical entities (NCEs) were evaluated for their in vivo efficacy in a murine infection caused by multi-drug resistant, methicillin resistant Staphylococcus aureus strain, referred to as MRSA 32, a clinical isolate obtained from a hospitalized patient. The procedure used for the murine assay is as follows:
Four weeks old swiss mice of 18-22 gm body weight were infected with MRSA 32 strain suspended in 5% Hog gastric mucin. The infecting dose of bacteria was set at 1-2×10^8 CFU/animal. The infecting dose was administered in 0.5 ml volume injected into peritonial cavity of mice. The treatment with oxazolidinone NCEs was started one hour after infection by administering 100-200 μl of the suspensions of oxazolidinone compounds in 5% Tween 80 by oral gavage. A repeat dose was similarly administered 3 hrs later. Each oxazolidinone NCE was tested at 2-3 different dosages in the range of 2.5 mg/kg to 20 mg/kg. In each dose group 6 mice were included. As an infection control group 12 mice were infected with MRSA 32 strain without giving any treatment. For compounds affording protection of MRSA infected mice, ED50 dosages were calculated on the basis of percentage survival on Day 7 after infection.

`CC(=O)NC[C@H]1CN(c2ccc(N3CCC4(CC3)C[C@@H]4C#N)c(F)c2)C(=O)O1` [Example 99, (1S,5S)—N-{3-[4-(1-cyano-6-aza-spiro[2.5]oct-6-yl)-3-fluorophenyl]-2-oxo-oxazolidin-5-ylmethyl}-acetamide]: the MIC in experiment [1] turned out to be 2 µg/mL (≈ 5.18 µM); in experiment [2] it was 1 µg/mL (≈ 2.59 µM); in experiment [3], 2 µg/mL (≈ 5.18 µM); in experiment [4], 0.5 µg/mL (≈ 1.29 µM); in experiment [5], 0.5 µg/mL (≈ 1.29 µM). In experiment [6], this compound had an ED50 of 5 mg/kg.

As for `CC(=O)NC[C@H]1CN(c2ccc(N3CCC4(CC3)COCCCO4)c(F)c2)C(=O)O1` [Example 164], the MIC in experiment [1] stood at 4 µg/mL (≈ 9.49 µM); in experiment [2], 2 µg/mL (≈ 4.75 µM); in experiment [3], 8 µg/mL (≈ 19 µM); in experiment [4] it was 4 µg/mL (≈ 9.49 µM); in experiment [5], 4 µg/mL (≈ 9.49 µM). The compound also gave an ED50 in experiment [6] of 10 mg/kg.

On to `C=CCC1(O)CCN(c2ccc(N3C[C@H](COS(C)(=O)=O)OC3=O)cc2F)CC1` [Example 41], for which the MIC in experiment [1] amounted to 8 µg/mL (≈ 18.7 µM); in experiment [2], 8 µg/mL (≈ 18.7 µM); in experiment [3] it was 8 µg/mL (≈ 18.7 µM); in experiment [4], 16 µg/mL (≈ 37.3 µM); in experiment [5] it was 16 µg/mL (≈ 37.3 µM). In addition, the ED50 in experiment [6] was 10 mg/kg.

With `CC(=O)NC[C@H]1CN(c2ccc(N3CCC(F)(CC#N)CC3)c(F)c2)C(=O)O1` [Example 2, (S)—N-{3-[4-(4-Fluoro-4-cyanomethylpiperidin-1-yl)-3-fluorophenyl]-2-oxo-oxazolidin-5-ylmethyl}-acetamide], the MIC in experiment [1] was found to be 1 µg/mL (≈ 2.55 µM); in experiment [2] it was 0.5 µg/mL (≈ 1.27 µM); in experiment [3] it was 1 µg/mL (≈ 2.55 µM); in experiment [4], 0.5 µg/mL (≈ 1.27 µM); in experiment [5], 1 µg/mL (≈ 2.55 µM). The compound also gave an ED50 in experiment [6] of 2.5 mg/kg.

For `CS(=O)(=O)NCC1CN(c2ccc(N3CCC(O)(CN=[N+]=[N-])CC3)c(F)c2)C(=O)O1` (stereo in doubt) [Example 40, (S)—N-{3-[4-(4-Azidomethyl-4-hydroxypiperidin-1-yl)-3-fluorophenyl]-2-oxo-oxazolidin-5-ylmethyl}-methanesulfonamide], the MIC in experiment [1] was 8 µg/mL (≈ 18.1 µM); in experiment [2], 8 µg/mL (≈ 18.1 µM); in experiment [3], greater than 16 µg/mL; in experiment [4], greater than 8 µg/mL; in experiment [5], greater than 8 µg/mL. This compound came in with an ED50 in experiment [6] of 10 mg/kg.

In the case of `CC(=O)NC[C@H]1CN(c2ccc(N3CCC4(CC3)CC4C#N)cc2)C(=O)O1` (mixture of isomers) [Example 96, (1RS,5S)—N-{3-[4-(1-cyano-6-aza-spiro[2.5]oct-6-yl)-phenyl]-2-oxo-oxazolidin-5-ylmethyl}-acetamide], the MIC in experiment [1] was determined as 4 µg/mL; in experiment [2], 2 µg/mL; in experiment [3] it was 8 µg/mL; in experiment [4], 4 µg/mL; in experiment [5] it was 4 µg/mL. Besides, the ED50 in experiment [6] was 5 mg/kg.

For the compound `CC(=O)NC[C@H]1CN(c2ccc(N3CCC(F)(COS(C)(=O)=O)CC3)c(F)c2)C(=O)O1` [Example 12, (S)—N-{3-[4-(4-Fluoro-4-methanesulfonyloxymethylpiperidin-1-yl)-3-fluorophenyl]-2-oxo-oxazolidin-5-ylmethyl}-acetamide], the MIC in experiment [1] worked out at 1 µg/mL (≈ 2.17 µM); in experiment [2] it was 0.5 µg/mL (≈ 1.08 µM); in experiment [3], 2 µg/mL (≈ 4.33 µM); in experiment [4], 0.25 µg/mL (≈ 0.542 µM); in experiment [5], 0.25 µg/mL (≈ 0.542 µM). The same compound came in with an ED50 in experiment [6] of 2.5 mg/kg.

Take `CC(=O)NC[C@H]1CN(c2ccc(N3CCC4(CC3)C[C@H]4C#N)c(F)c2)C(=O)O1` [Example 98, (1R,5S)—N-{3-[4-(1-cyano-6-aza-spiro[2.5]oct-6-yl)-3-fluorophenyl]-2-oxo-oxazolidin-5-ylmethyl}-acetamide]: the MIC in experiment [1] was 2 µg/mL (≈ 5.18 µM); in experiment [2], 1 µg/mL (≈ 2.59 µM); in experiment [3] it was 2 µg/mL (≈ 5.18 µM); in experiment [4] it was 1 µg/mL (≈ 2.59 µM); in experiment [5] it was 1 µg/mL (≈ 2.59 µM). For the same compound, the ED50 in experiment [6] is 5 mg/kg.

For the compound `CC(=O)NC[C@H]1CN(c2ccc(N3CCC(F)(CO)CC3)c(F)c2)C(=O)O1` [Example 9, (S)—N-{3-[4-(4-Fluoro-4-hydroxymethylpiperidin-1-yl)-3-fluorophenyl]-2-oxo-oxazolidin-5-ylmethyl}-acetamide], the MIC in experiment [1] was 2 µg/mL (≈ 5.22 µM); in experiment [2], 0.5 µg/mL (≈ 1.3 µM); in experiment [3], 4 µg/mL (≈ 10.4 µM); in experiment [4] it was 2 µg/mL (≈ 5.22 µM); in experiment [5] it was 2 µg/mL (≈ 5.22 µM). In experiment [6], this compound came in with an ED50 of 5 mg/kg.
